Data reported in PubChem BioAssay (NCI).
“And” between values parts separate entries of the source, which are not always exact repeats. Identical values can stand only once.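 All cell lines were grown in 96-well plates and treated with compound for 48 hours. GI50: concentration for 50% inhibition of growth. TGI marks complete inhibition of growth.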

How the values were obtained:
Assay in all cases: NCI anticancer screen, dose series, 48 h
CAKI-1 renal = test system: CAKI-1 renal
HL-60(TB) leukemia = test system: HL-60(TB) leukemia
M14 melanoma = test system: M14 melanoma
OVCAR-5 ovarian = test system: OVCAR-5 ovarian
RXF 393 renal = test system: RXF 393 renal
SF-268 CNS = test system: SF-268 CNS
SF-539 CNS = test system: SF-539 CNS
SK-MEL-28 melanoma = test system: SK-MEL-28 melanoma
U251 CNS = test system: U251 CNS
EKVX NSCLC = test system: EKVX NSCLC

SMILES | GI50 (CAKI-1 renal) | TGI (CAKI-1 renal) | GI50 (HL-60(TB) leukemia) [µM] | TGI (HL-60(TB) leukemia) | GI50 (M14 melanoma) [µM] | TGI (M14 melanoma) [µM] | GI50 (OVCAR-5 ovarian) [µM] | TGI (OVCAR-5 ovarian) | GI50 (RXF 393 renal) [µM] | TGI (RXF 393 renal) | GI50 (SF-268 CNS) [µM] | TGI (SF-268 CNS) [µM] | GI50 (SF-539 CNS) [µM] | TGI (SF-539 CNS) | GI50 (SK-MEL-28 melanoma) | TGI (SK-MEL-28 melanoma) [µM] | GI50 (U251 CNS) [µM] | TGI (U251 CNS) [µM] | TGI (EKVX NSCLC) | GI50 (EKVX NSCLC) [µM]
c1ccc2c(-c3nc4ccccc4[nH]3)cccc2c1 | 3.18 µM | > 100 µM | 2.78 | 14.8 µM | 1.99 | 12 | 8.35 | > 100 µM | 2.58 | 12 µM | 5.62 | > 100 | 3.77 | 23.7 µM | 4.64 µM | > 100 | 3.72 | 26.3 | – | –
O=C(CC/C(CC(=O)c1ccc(Cl)cc1)=N/O)Nc1ccc(Cl)c(Cl)c1 | – | > 100 µM | – | > 100 µM | – | > 100 | – | > 100 µM | – | – | – | > 100 | – | > 100 µM | – | > 100 | – | > 100 | > 100 µM | –
O=C1/C(=C/c2ccc(Cl)cc2)CN(Cc2cn(CCNc3ccnc4cc(Cl)ccc34)nn2)C/C1=C\c1ccc(Cl)cc1 | 0.346 µM | 1.57 µM | 0.332 | 1.1 µM | 0.56 | 2.21 | 0.612 | 1.62 µM | 0.201 | 0.416 µM | 0.27 | 0.786 | 0.264 | 0.742 µM | 1.4 µM | 2.81 | 0.185 | 0.391 | – | –
Oc1ccccc1Nc1nc2ccccc2c2occc12 | 1.78 µM | 12.8 µM | – | – | 11.6 | 23.8 | 12.6 | 25.1 µM | – | – | 8.74 | 28.6 | 10.4 | 22.1 µM | 15.1 µM | 31.8 | 12.3 | 24.7 | 26.2 µM | 11.3
Cc1[nH]n(-c2ccc(S(=O)(=O)O)cc2)c(=O)c1N=Nc1ccccc1 | – | > 100 µM | – | – | – | > 100 | – | > 100 µM | – | > 100 µM | – | > 100 | – | > 100 µM | – | > 100 | – | > 100 | > 100 µM | –
S=P1(c2ccccc2)Nc2ccc(Cl)cc2N1 (configuration not stated) | – | > 100 µM | – | 57.5 µM | – | 56.9 | – | > 100 µM | – | – | – | > 100 | – | > 100 µM | – | > 100 | – | > 100 | > 100 µM | –
CN(C)CC(C)(C)C(/C=C/c1ccccc1)=N\Nc1ccccc1 | – | – | – | 7.49 µM | – | 20.3 | – | 2 µM | – | 32.8 µM | – | 15.4 | – | 0.897 µM | – | 10.8 | – | 13.4 | 16.4 µM | –
Cn1cnc([N+](=O)[O-])c1Sc1nc2cccnc2s1 | – | 21 µM | – | – | – | 26.8 | – | > 100 µM | – | 32.9 µM | – | 69.1 | – | 42 µM | – | 30.8 | – | 65.8 | 33.8 µM | –
CCOCC(=O)N[C@H]1CCc2cc(OC(=O)COCC)c(OC)c(OC)c2-c2ccc(SC)c(=O)cc21 | – | – | – | 0.0313 µM and 0.0326 µM | 0.0134 | 0.0762 | 0.0549 | > 100 µM | – | > 100 µM | 0.0431 | – | 0.0126 | 0.061 µM and 0.0554 µM | > 100 µM | > 100 | 0.0154 | – | > 100 µM | 32.1
CO/N=C(\COc1ccc2c(c1)oc(=O)c1cc(OC)ccc12)c1ccc(F)cc1 | 19.1 µM | 55 µM | – | – | 17.8 | 45.7 | 29.4 | 83.4 µM | 35.1 | > 100 µM | 29.9 | > 100 | 23.5 | 63 µM | 87.3 µM | > 100 | 20.3 | 40.4 | > 100 µM | 35.2
COC(=O)c1oc2c(O)c(OC)c(Br)cc2c1C | 43.4 µM | > 100 µM | – | – | 22.6 | 42.6 | – | – | 28.6 | 67.1 µM | 31 | > 100 | – | – | – | – | 18.2 | 33.1 | 49.1 µM | 23.8
COc1ccc(N(C)c2nc(Cl)nc3ccn(C)c23)cc1 | – | – | < 0.01 | < 0.01 µM | < 0.01 | > 100 | 7.54 | > 100 µM | < 0.01 | > 100 µM | < 0.01 | > 100 | < 0.01 | > 100 µM | 5 µM | > 100 | < 0.01 | > 100 | > 100 µM | < 0.01
COc1ccc2cc3[n+](cc2c1OC)CCc1cc2c(cc1-3)OCO2 | > 100 µM and 16.8 µM and 65 µM | > 100 µM and 210 µM | – | – | 16.9 | – | – | > 100 µM and 149 µM | 50.7 | > 100 µM and 223 µM | 4.68 | – | 18.1 | > 100 µM and 83.1 µM | 11.2 µM and 17.2 µM | – | – | – | > 100 µM and 175 µM | –
COCOCc1cc(OCc2ccccc2)c(OC)cc1Br | – | > 100 µM | – | – | – | – | – | > 100 µM | – | > 100 µM | – | > 100 | – | > 100 µM | – | > 100 | – | > 100 | > 100 µM | –
O=c1[nH]ccc2nc(-c3ccc(CN4CCC(c5nc(-c6ccccn6)n[nH]5)CC4)cc3)c(-c3ccccc3)cc12 | – | – | 23.6 | > 86.7 µM | 22.2 | > 100 | 37.8 | > 100 µM | 0.272 | 4.73 µM | 25.9 | > 100 | 4.81 | 20.8 µM | 16.8 µM | > 66.1 | 13.2 | > 66.6 | > 100 µM | 15.8
CC(=O)c1c(O)ccc2c(C)c(C(=O)O)oc12 | > 100 µM | > 100 µM | – | – | > 100 | > 100 | > 100 | > 100 µM | > 100 | > 100 µM | > 100 | > 100 | > 100 | > 100 µM | > 100 µM | > 100 | > 100 | > 100 | > 100 µM | > 100
CC1(C)N=C(N)N=C(N)N1c1ccc(OCC(=O)N2CCOCC2)c(Cl)c1 | – | – | 0.981 | > 100 µM | 4.19 | > 100 | 84.4 | > 100 µM | 52.8 | > 100 µM | 0.759 | > 100 | 5.32 | > 100 µM | 30.1 µM | > 100 | 1.16 | > 100 | > 100 µM | 2.29
